# Laboratory results from US7678807B2, “Isoquinoline and benzo[H] isoquinoline derivatives, preparation and therapeutic use thereof as antagonists of the histamine H3 receptor” (sanofi-aventis, priority 2005, dated 2010).
# Structures can show the parent of a compound that is named as a salt.
# Target: native histamine H3 receptor (Rattus norvegicus, UniProt Q9QYN8)
# Experiment: in vitro affinity assay, specific binding of [3H]-N-α-methylhistamine, adult rat brain membrane preparation
# Conditions: adult rat brain membranes, read-out: Ki with regard to the H3 receptors
# Source text: Thus, the compounds of the invention of formula (I) were subjected to an in vitro affinity assay on the native histamine H3 receptor in an adult rat brain membrane preparation by the specific binding of [^3H]-N-α-methylhistamine to this receptor, according to methods described by Korte, A. et al. in Biochem. Biophys. Res. Commun., 168, 979-986 (1990) and by West, R. E. Jr. et al. in Mol. Pharmacol., 38, 610-613 (1990).
# native histamine H3 receptor, sequence (Q9QYN8 1-397 isoform Q9QYN8-3): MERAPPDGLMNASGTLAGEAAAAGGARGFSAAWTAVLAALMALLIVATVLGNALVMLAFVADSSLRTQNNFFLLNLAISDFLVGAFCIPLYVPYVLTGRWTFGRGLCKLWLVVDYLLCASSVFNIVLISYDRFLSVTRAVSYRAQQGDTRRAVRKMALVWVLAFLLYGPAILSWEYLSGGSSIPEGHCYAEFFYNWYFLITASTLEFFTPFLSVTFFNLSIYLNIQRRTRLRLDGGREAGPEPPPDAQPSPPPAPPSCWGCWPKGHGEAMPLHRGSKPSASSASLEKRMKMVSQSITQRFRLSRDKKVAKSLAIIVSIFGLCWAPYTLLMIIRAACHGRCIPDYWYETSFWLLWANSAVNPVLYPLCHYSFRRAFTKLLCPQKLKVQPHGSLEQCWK
row,Ki,Structure (SMILES)
1,0.1 nM,"CN1CCCC1CCOc1ccc2c(c1)CN(CC1CCCCC1)CC2 (stereo not drawn) [Compound 5, 2-(cyclohexylmethyl)-7-[2-(1-methylpyrrolidin-2-yl)ethoxy]-1,2,3,4-tetrahydroisoquinoline]"

# Target: T1, human histamine H3 receptor (Homo sapiens, UniProt Q9Y5N1)
# T1 construct: expressed in transfected cells; host or cells: CHO cells
# T1 sequence (Q9Y5N1 whole entry): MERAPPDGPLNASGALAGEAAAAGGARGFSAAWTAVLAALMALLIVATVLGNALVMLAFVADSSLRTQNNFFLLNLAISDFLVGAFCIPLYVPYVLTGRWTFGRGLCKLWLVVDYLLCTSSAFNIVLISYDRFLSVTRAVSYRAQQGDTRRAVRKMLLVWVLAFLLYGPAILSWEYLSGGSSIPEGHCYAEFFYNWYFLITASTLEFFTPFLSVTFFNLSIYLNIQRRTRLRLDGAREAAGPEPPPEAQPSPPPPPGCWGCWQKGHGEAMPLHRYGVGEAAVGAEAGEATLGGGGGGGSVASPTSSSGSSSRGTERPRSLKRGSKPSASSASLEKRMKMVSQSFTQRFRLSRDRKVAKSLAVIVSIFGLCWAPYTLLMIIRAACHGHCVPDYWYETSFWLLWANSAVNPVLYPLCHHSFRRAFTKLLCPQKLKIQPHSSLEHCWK
# Experiment: cAMP formation assay, inhibition of R-α-methylhistamine agonism, receptor transfected into CHO cells (EIA kit)
# Type: cell-based
# Conditions: EIA kit (Amersham)
# Source text: The compounds of the invention of formula (I) were also subjected to a cAMP formation assay on the human histamine H3 receptor transfected into CHO cells by the inhibition of the agonism brought about by the specific binding of R-α-methylhistamine to this receptor, according to the methods described by Lovenberg, T. W. et al. in J. Pharmacol. Exp. Ther., 293, 771-778 (2000).
row,IC50,Structure (SMILES)
1,< 10 nM,"CN1CCCC1CCOc1ccc2c(c1)CN(CC1CCCCC1)CC2 (stereo not drawn) [Compound 5, 2-(cyclohexylmethyl)-7-[2-(1-methylpyrrolidin-2-yl)ethoxy]-1,2,3,4-tetrahydroisoquinoline]"

# Tested on: not given
# Experiment: not given
# Conditions: not given
row,Structure (SMILES),melting point
1,CCCN1CCc2ccc(OCCC3CCCCN3C)cc2C1 (stereo not drawn) (as salt: hydrochloride),186 to 190 °C
2,"CN1CCCC1CCOc1ccc2c(c1)CN(Cc1ccccc1)CC2 (stereo not drawn) (as salt: oxalate) [Compound 10, 2-benzyl-7-[2-(1-methylpyrrolidin-2-yl)ethoxy]-1,2,3,4-tetrahydroisoquinoline]",143 to 150 °C
3,"CN1CCCC(Oc2ccc3c(c2)CN(Cc2ccccc2)CC3)CC1 (stereo not drawn) (as salt: oxalate) [Compound 11, 2-benzyl-7-[(1-methylazepan-4-yl)oxy]-1,2,3,4-tetrahydroisoquinoline]",108 to 116 °C
4,CC(C)CN1CCc2ccc(OCCC3CCCN3C)cc2C1 (stereo not drawn) (as salt: tartrate),77 to 80 °C
5,CCCCN1CCc2ccc(OC3CCCN(C)CC3)cc2C1 (stereo not drawn) (as salt: tartrate),96 to 107 °C
6,CCCCN1CCc2ccc(OCCC3CCCN3C)cc2C1 (stereo not drawn) (as salt: tartrate),95 to 105 °C
7,CCCN1CCc2ccc(OC3CCCN(C)CC3)cc2C1 (stereo not drawn) (as salt: tartrate),76 to 97 °C
8,CCCN1CCc2ccc(OCCC3CCCN3C)cc2C1 (stereo not drawn) (as salt: tartrate),66 to 91 °C
9,"CC(C)CCN1CCc2ccc(OCCC3CCCN3C)cc2C1 (stereo not drawn) (as salt: tartrate) [Compound 3, 2-(3-methylbutyl)-7-[2-(1-methylpyrrolidin-2-yl)ethoxy]-1,2,3,4-tetrahydroisoquinoline]",61 to 65 °C
10,"CC(C)CCN1CCc2ccc(OC3CCCN(C)CC3)cc2C1 (stereo not drawn) (as salt: tartrate) [Compound 4, 7-[(1-methylazepan-4-yl)oxy]-2-(3-methylbutyl)-1,2,3,4-tetrahydroisoquinoline]",60 to 70 °C

# Next, values leading:
row,melting point,Structure (SMILES)
1,190 to 200 °C,"CN1CCC[C@@H]1CCOc1ccc2c(c1)CN(CC1CCCCC1)CC2 (as salt: hydrochloride) [Compound 6, 2-(cyclohexylmethyl)-7-{2-[(2R)-1-methylpyrrolidin-2-yl]ethoxy}-1,2,3,4-tetrahydroisoquinoline]"
2,274 to 277 °C,"CN1CCC[C@@H]1CCOc1ccc2c3c(ccc2c1)CCN(CC1CCCCC1)C3 (as salt: hydrochloride) [Compound 14, 2-(cyclohexylmethyl)-8-{2-[(2R)-1-methylpyrrolidin-2-yl]ethoxy}-1,2,3,4-tetrahydrobenzo[h]isoquinoline]"
3,238 to 241 °C,"CN1CCC[C@H]1CCOc1ccc2c(c1)CN(CC1CCCCC1)CC2 (as salt: hydrochloride) [Compound 18, 2-(Cyclohexylmethyl)-7-(2-[(2S)-1-methylpyrrolidin-2-yl]ethoxy)-1,2,3,4-tetrahydroisoquinoline hydrochloride (1:2)]"
4,195 to 199 °C,"CN1CCC[C@H]1CCOc1ccc2c(c1)CN(CC1CCCCC1)CC2 (as salt: oxalate) [Compound 7, 2-(cyclohexylmethyl)-7-{2-[(2S)-1-methylpyrrolidin-2-yl]ethoxy}-1,2,3,4-tetrahydroisoquinoline]"
5,101 to 111 °C,"CN1CCCCC1CCOc1ccc2c(c1)CN(CC1CCCCC1)CC2 (stereo not drawn) (as salt: oxalate) [Compound 9, 2-(cyclohexylmethyl)-7-[2-(1-methylpiperidin-2-yl)ethoxy]-1,2,3,4-tetrahydroisoquinoline]"
6,98 to 110 °C,"CN1CCCC(Oc2ccc3c(c2)CN(Cc2cccs2)CC3)CC1 (stereo not drawn) (as salt: oxalate) [Compound 12, 7-[(1-methylazepan-4-yl)oxy]-2-(2-thienylmethyl)-1,2,3,4-tetrahydroisoquinoline]"
7,271 to 274 °C,"CN1CCC[C@H]1CCOc1ccc2c3c(ccc2c1)CCN(CC1CCCCC1)C3 (as salt: oxalate) [Compound 15, 2-(cyclohexylmethyl)-8-{2-[(2S)-1-methylpyrrolidin-2-yl]ethoxy}-1,2,3,4-tetrahydrobenzo[h]isoquinoline]"
8,77 to 82 °C,"CN1CCCC(Oc2ccc3c4c(ccc3c2)CCN(CC2CCCCC2)C4)CC1 (stereo not drawn) (as salt: oxalate) [Compound 16, 2-(cyclohexylmethyl)-8-[(1-methylazepan-4-yl)oxy]-1,2,3,4-tetrahydrobenzo[h]isoquinoline]"
9,124 to 127 °C,"CN1CCCCC1CCOc1ccc2c3c(ccc2c1)CCN(CC1CCCCC1)C3 (stereo not drawn) (as salt: oxalate) [Compound 17, 2-(cyclohexylmethyl)-8-[2-(1-methylpiperidin-2-yl)ethoxy]-1,2,3,4-tetrahydrobenzo[h]isoquinoline]"
